Results from patent US6515025B2, “Use of ethynyl alanine amino diol compounds to inhibit enzymatic conversion of angiotensinogen to angiotensin I” (Pharmacia Corporation, priority 1991, dated 2003).
Several values for one entry are separate records, joined by “and”; a condition that tells them apart may be missing. Identical values can stand only once.

Assays:
renin (Rat plasma) = target: T1, renin (Rat plasma) (Rattus norvegicus, UniProt P08424); test: Renin inhibitor species specificity, rat plasma renin activity; format: biochemical
T1 construct: the animal plasma is the source of both the renin substrate and the renin enzyme; from tissue; host or cells: pooled rat plasma
T1 sequence (P08424 65-402): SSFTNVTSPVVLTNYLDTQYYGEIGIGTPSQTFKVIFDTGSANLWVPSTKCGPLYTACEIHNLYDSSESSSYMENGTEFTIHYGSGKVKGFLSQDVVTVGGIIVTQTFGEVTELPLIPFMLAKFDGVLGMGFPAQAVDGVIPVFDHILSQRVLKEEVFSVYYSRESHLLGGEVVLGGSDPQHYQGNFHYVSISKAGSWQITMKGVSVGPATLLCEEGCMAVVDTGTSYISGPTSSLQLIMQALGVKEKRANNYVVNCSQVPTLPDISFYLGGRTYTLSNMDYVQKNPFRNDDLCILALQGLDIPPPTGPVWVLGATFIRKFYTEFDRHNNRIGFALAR
Protocol: Blood was collected in a 10 ml Becton Dickinson vacutainer tube with 0.1 ml of 15% EDTA (K3) solution (15 mg) from normal animals or high renin animals; i.e., those pre-treated with 5 mg/kg of Lasix® intramuscularly 2 times within a 6 hour interval 24 hours prior to bleeding. The blood was then centrifuged at 2500 RPM for 20 minutes and the plasma from the various species respectively pooled, aliquoted and stored in the freezer. The human plasma source was taking a prescription of an angiotensin converting enzyme inhibitor.
The plasma renin activity assay is a modification of the human renin inhibition test in that the animal plasma is the source of both the renin substrate and the renin enzyme. In a total volume of 0.1 ml, 90 mM Tris-acetate buffer, pH 7.5, 12 mM sodium EDTA, 0.012 mg/ml neomycin sulfate, 0.9 mg/ml bovine serum albumin, 1.61 mM phenylmethyl sulfonyl fluoride, 4 mM 8-hydroxyquinoline and 0.09 ml of the animal or human plasmas were incubated for 2 hours at 37° C. in a shaking water bath or at 4° C. in an ice bath in the presence or absence of renin inhibitors. The produced angiotensin I was determined by radioimmunoassay (New England Nuclear kit).
The amount of angiotensin I generated during the 2 hours at 4° C. was usually less than 5% of that activity produced at 37° C.; however, the 4° C. background values were nevertheless subtracted from the 37° C. ones for the 100% activity values. The renin inhibitors were assayed in duplicate using 5 concentrations and the data is expressed as a percent of the 100% total renin activity.

[1] = Oral bioavailability studies in marmosets (plasma concentration by bioassay); format: in vivo; settings: marmoset; for Plasma Concentrations: individual animals
Protocol: The bioavailability in marmosets and dogs was determined by sampling the blood via the femoral vein at various time points after administering the renin inhibitor compounds of the invention in polyethylene glycol 400 at an intragastric dose of 10 mg/kg or at an intravenous dose of 1 mg/kg. Compound concentration in plasma was determined using the bioassay technique described below. The percent bioavailability was calculated by dividing the area under the concentration-vs.-time curve obtained from the intragastric experiment by the area under the concentration-vs.-time curve obtained from the intravenous experiment (adjusting for different doses), and multiplying the result by 100%. The bioavailibility of Example 1 compound is 27% in marmosets and 33% in dogs.
Renin inhibitor plasma concentrations were determined by a bioassay. The plasma samples were extracted with acetonitrile and the extract was evaporated to dryness under nitrogen. Residue was dissolved in 4% bovine serum albumin containing 0.9% NaCl and 5% EDTA. The dissolved residue (0.1 ml) was incubated with a reaction mixture containing human plasma (0.12 ml), 5% phenylmethysulfonylfluoride (1.2 ul), 10% neomycin (2.4 ul), 0.5 M TES buffer (pH 7.4, 24 ul), and 0.6 mU/ml recombinant human renin (1000 U/mg, 50 ul) at 37° C. for 90 minutes. The renin activity was determined by a standard angiotensin I radioimmunoassay (New England Nuclear Corp.). The amount of test compound in the plasma was determined by comparing the extent of inhibition of renin activity with that produced by a known amount of test compound added to plasma and analyzed above.

% of Total Renin Activity (renin (Rat plasma); 100 nM): 93%
% of Total Renin Activity (renin (Rat plasma); 400 nM): 76%
% of Total Renin Activity (range only) (renin (Rat plasma); 1600 nM): (23-34)
Plasma Concentrations ([1]; IG at 10 mg/kg, Test Run A, 30 min, 10 mg/kg): 7258 ng/mL and 9322 ng/mL
Plasma Concentrations ([1]; IG at 10 mg/kg, Test Run A, 1 hr, 10 mg/kg): 1989 ng/mL and 1751 ng/mL
Plasma Concentrations ([1]; IG at 10 mg/kg, Test Run A, 2 hr, 10 mg/kg): 1525 ng/mL and 1811 ng/mL
Plasma Concentrations ([1]; IG at 10 mg/kg, Test Run A, 3 hr, 10 mg/kg): 5289 ng/mL and 6935 ng/mL
Plasma Concentrations ([1]; IG at 10 mg/kg, Test Run A, 4 hr, 10 mg/kg): 742 ng/mL and 1766 ng/mL and 1217 ng/mL
Plasma Concentrations ([1]; IG at 10 mg/kg, Test Run A, 5 hr, 10 mg/kg): 369 ng/mL and 1397 ng/mL and 945 ng/mL
Plasma Concentrations ([1]; IG at 10 mg/kg, Test Run A, 6 hr, 10 mg/kg): 3177 ng/mL and 4412 ng/mL
Plasma Concentrations ([1]; IG at 10 mg/kg, Test Run A, 8 hr, 10 mg/kg): 3036 ng/mL and 3800 ng/mL
Plasma Concentrations ([1]; IG at 10 mg/kg, Test Run B, 30 min, 10 mg/kg): 1016 ng/mL and 1126 ng/mL
Plasma Concentrations ([1]; IG at 10 mg/kg, Test Run B, 1 hr, 10 mg/kg): 416 ng/mL and 5266 ng/mL and 12300 ng/mL
Plasma Concentrations ([1]; IG at 10 mg/kg, Test Run B, 2 hr, 10 mg/kg): 519 ng/mL and 4847 ng/mL and 13485 ng/mL
Plasma Concentrations ([1]; IG at 10 mg/kg, Test Run B, 3 hr, 10 mg/kg): 2751 ng/mL and 3640 ng/mL and 1400 ng/mL
Plasma Concentrations ([1]; IG at 10 mg/kg, Test Run B, 4 hr, 10 mg/kg): 459 ng/mL and 4502 ng/mL and 11470 ng/mL
Plasma Concentrations ([1]; IG at 10 mg/kg, Test Run B, 5 hr, 10 mg/kg): 545 ng/mL and 3718 ng/mL and 7783 ng/mL
Plasma Concentrations ([1]; IG at 10 mg/kg, Test Run B, 6 hr, 10 mg/kg): 2721 ng/mL and 1950 ng/mL
Plasma Concentrations ([1]; IG at 10 mg/kg, Test Run B, 8 hr, 10 mg/kg): 1566 ng/mL and 1868 ng/mL
Plasma Concentrations ([1]; IV at 1 mg/kg, Test Run C, 2 min, 1 mg/kg): 21579 ng/mL and 16641 ng/mL
Plasma Concentrations ([1]; IV at 1 mg/kg, Test Run C, 30 min, 1 mg/kg): 10359 ng/mL and 7921 ng/mL
Plasma Concentrations ([1]; IV at 1 mg/kg, Test Run C, 1 hr, 1 mg/kg): 2665 ng/mL and 2793 ng/mL
Plasma Concentrations ([1]; IV at 1 mg/kg, Test Run C, 2 hr, 1 mg/kg): 795 ng/mL and 2362 ng/mL and 1667 ng/mL
Plasma Concentrations ([1]; IV at 1 mg/kg, Test Run C, 3 hr, 1 mg/kg): 404 ng/mL and 562 ng/mL
Plasma Concentrations ([1]; IV at 1 mg/kg, Test Run C, 4 hr, 1 mg/kg): 608 ng/mL and 1223 ng/mL and 1068 ng/mL
Plasma Concentrations ([1]; IV at 1 mg/kg, Test Run C, 6 hr, 1 mg/kg): 208 ng/mL and 245 ng/mL
Plasma Concentrations ([1]; IV at 1 mg/kg, Test Run D, 2 min, 1 mg/kg): 7875 ng/mL and 5900 ng/mL
Plasma Concentrations ([1]; IV at 1 mg/kg, Test Run D, 15 min, 1 mg/kg): 7239 ng/mL and 2016 ng/mL and 897 ng/mL
Plasma Concentrations ([1]; IV at 1 mg/kg, Test Run D, 30 min, 1 mg/kg): 2356 ng/mL and 1189 ng/mL
Plasma Concentrations ([1]; IV at 1 mg/kg, Test Run D, 1 hr, 1 mg/kg): 1250 ng/mL and 1614 ng/mL and 3149 ng/mL
Plasma Concentrations ([1]; IV at 1 mg/kg, Test Run D, 2 hr, 1 mg/kg): 1004 ng/mL and 1055 ng/mL
Plasma Concentrations ([1]; IV at 1 mg/kg, Test Run D, 3 hr, 1 mg/kg): 451 ng/mL and 557 ng/mL and 1009 ng/mL
Plasma Concentrations ([1]; IV at 1 mg/kg, Test Run D, 4 hr, 1 mg/kg): 153 ng/mL and 587 ng/mL and 506 ng/mL
Plasma Concentrations ([1]; IV at 1 mg/kg, Test Run D, 6 hr, 1 mg/kg): 84 ng/mL and 158 ng/mL
concentration at 2 min ([1]; plasma, iv, 1 mg/kg, IV at 1 mg/kg, 2 min, Test Run D table, read-out: Plasma Concentrations, Mean ± SE): 11600 ± 2770 ng/mL
Structure (SMILES): C#CC[C@H](NC(=O)C(CC(=O)N(C)CCN(C)C)Cc1ccccc1)C(=O)NC(CC1CCCCC1)[C@@H](O)C(O)CC(C)C (relative stereo) [Example 1, N1-[1R*-[[[1S,1R*-(cyclohexylmethyl)-2S*,3R*-dihydroxy-5-methylhexyl]amino]carbonyl]-3-butynyl]-N4-[2-(dimethylamino)ethyl]-N4-methyl-2S*-(phenylmethyl)butanediamide]
Plasma Concentrations ([1]; IV at 1 mg/kg, Test Run C, 15 min, 1 mg/kg): 6756 ng/mL and 15283 ng/mL and 11628 ng/mL
